The values that follow come from PubChem BioAssay AID2060883 (Molecular Pharmacology Branch, DTP, NCI, 2025).

In general, viability, T/C refers to the result in the treated group divided by that in the control group, in per cent. By IC50 is commonly meant the concentration at which inhibition is half-maximal.

Some results are limits rather than exact numbers.

The test deals with 843782-103-R-J1-PDC complex spheroid viability. Briefly: Anticancer human tumor 843782-103-R-J1-PDC patient-derived lung adenocarcinoma cell line growth inhibition [RAS]. As to conditions: for viability, T/C: stronger effect = lower value. The procedure, abridged:
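Tumour cells grown as complex spheroids with HUVEC endothelial cells and mesenchymal stem cells, treated with RAS pathway inhibitor combinations. Each agent spans half-log steps from near clinical Cmax, or 10 microM where Cmax is unknown.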

The mark [1] stands for this setting: curve of first compound, second compound 0.000949 µM.
[2] abbreviates: curve of first compound, second compound 0.003 µM.
The mark [3] stands for this setting: curve of first compound, second compound 0.00949 µM.
[4] abbreviates: curve of first compound, second compound 0.03 µM.
Setting [5] is: curve of first compound, second compound 0.0949 µM.
Where [6] appears, read: curve of first compound, second compound 0.3 µM.
The mark [7] stands for this setting: second compound 0.000949 µM, first compound 0.0316 µM.
[8] abbreviates: second compound 0.000949 µM, first compound 0.1 µM.
Where [9] appears, read: second compound 0.000949 µM, first compound 0.316 µM.
Where [10] appears, read: second compound 0.000949 µM, first compound 1 µM.
Setting [11] is: second compound 0.000949 µM, first compound 3.16 µM.
The mark [12] stands for this setting: second compound 0.000949 µM, first compound 10 µM.
Where [13] appears, read: second compound 0.003 µM, first compound 0.0316 µM.
[14] abbreviates: second compound 0.003 µM, first compound 0.1 µM.
Where [15] appears, read: second compound 0.003 µM, first compound 0.316 µM.
Where [16] appears, read: second compound 0.003 µM, first compound 1 µM.
Where [17] appears, read: second compound 0.003 µM, first compound 3.16 µM.
Setting [18] is: second compound 0.003 µM, first compound 10 µM.
The mark [19] stands for this setting: second compound 0.00949 µM, first compound 0.0316 µM.
[20] abbreviates: second compound 0.00949 µM, first compound 0.1 µM.
Setting [21] is: second compound 0.00949 µM, first compound 0.316 µM.
The mark [22] stands for this setting: second compound 0.00949 µM, first compound 1 µM.
The mark [23] stands for this setting: second compound 0.00949 µM, first compound 3.16 µM.
Where [24] appears, read: second compound 0.00949 µM, first compound 10 µM.
The mark [25] stands for this setting: second compound 0.03 µM, first compound 0.0316 µM.
Where [26] appears, read: second compound 0.03 µM, first compound 0.1 µM.
Where [27] appears, read: second compound 0.03 µM, first compound 0.316 µM.
The mark [28] stands for this setting: second compound 0.03 µM, first compound 1 µM.
[29] abbreviates: second compound 0.03 µM, first compound 3.16 µM.
Setting [30] is: second compound 0.03 µM, first compound 10 µM.
Where [31] appears, read: second compound 0.0949 µM, first compound 0.0316 µM.
The mark [32] stands for this setting: second compound 0.0949 µM, first compound 0.1 µM.
Setting [33] is: second compound 0.0949 µM, first compound 0.316 µM.
Where [34] appears, read: second compound 0.0949 µM, first compound 1 µM.
Setting [35] is: second compound 0.0949 µM, first compound 3.16 µM.
Where [36] appears, read: second compound 0.0949 µM, first compound 10 µM.
The mark [37] stands for this setting: second compound 0.3 µM, first compound 0.0316 µM.
The mark [38] stands for this setting: second compound 0.3 µM, first compound 0.1 µM.
The mark [39] stands for this setting: second compound 0.3 µM, first compound 0.316 µM.
The mark [40] stands for this setting: second compound 0.3 µM, first compound 1 µM.
The mark [41] stands for this setting: second compound 0.3 µM, first compound 3.16 µM.
The mark [42] stands for this setting: second compound 0.3 µM, first compound 10 µM.
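Also: viability read after seven days of compound exposure.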

As for `CC(C)n1nc(-c2ccc3oc(N)nc3c2)c2c(N)ncnc21`, the viability, T/C runs as follows: (compound 0.000316 µM) 108% [middle of 4 runs]; (compound 0.001 µM) 94% [middle of 4 runs]; (compound 0.00316 µM) 91.6% [middle of 4 runs]; (compound 0.01 µM) 72.3% [middle of 4 runs]; (compound 0.0316 µM) 48.1% [middle of 4 runs]; (compound 0.1 µM) 28.8% [middle of 4 runs]. Further, under “curve of compound”, the IC50 is 31.2 nM [middle of 4 runs].

Turning to `CC(Nc1ccc2c(c1)OCCn1cc(N3C(=O)OCC3C(F)F)nc1-2)C(N)=O` (stereo not drawn) + CCn1c(-c2cc(N3CCN(C)CC3)cnc2C(C)OC)c2c3cc(ccc31)-c1csc(n1)CC(NC(=O)C1CC1C)C(=O)N1CCCC(N1)C(=O)OCC(C)(C)C2, the IC50 reads like this: under setting [1], 77 nM; under setting [2], under 31.6 nM; under setting [3], under 31.6 nM; under setting [4], under 31.6 nM; under setting [5], under 31.6 nM; under setting [6], under 31.6 nM. For the same compound, the viability, T/C is 58% under setting [7]; 48.6% under setting [8]; 29.5% under setting [9]; 17.9% under setting [10]; 15.6% under setting [11]; 8.54% under setting [12]. Further, the viability, T/C is 46.8% under setting [13]; 31.7% under setting [14]; 23.1% under setting [15]; 14.1% under setting [16]; 10.7% under setting [17]; 5.42% under setting [18]. The viability, T/C under setting [19] is 28%; the viability, T/C under setting [20] was 17.1%; the viability, T/C under setting [21] is 17%; the viability, T/C under setting [22] was 10.7%; the viability, T/C under setting [23] is 9.87%; the viability, T/C under setting [24] is 3.83%. Besides, the viability, T/C is 17.1% under setting [25]; 13.6% under setting [26]; 10.8% under setting [27]; 8.39% under setting [28]; 6.08% under setting [29]; 2.39% under setting [30]. In addition, the viability, T/C was 15.7% under setting [31]; 10.8% under setting [32]; 9.99% under setting [33]; 6.85% under setting [34]; 4.41% under setting [35]; 3.16% under setting [36]. Besides, the viability, T/C is 16.4% under setting [37]; 10.4% under setting [38]; 7.76% under setting [39]; 7.43% under setting [40]; 5.53% under setting [41]; 2.56% under setting [42].

For `NC1c2ccccc2OC12CCN(c1cnc3c(N4CCCc5ncccc54)n[nH]c3n1)CC2` (stereo not drawn), the viability, T/C by setting is: (compound 3.16 µM) 51.5% [middle of 4 runs]; (compound 10 µM) 34.7% [middle of 4 runs].

For `CCC(CC)c1cc(NC2CCC(N)C2)n2nccc2n1` (stereo not drawn) + CCn1c(-c2cc(N3CCN(C)CC3)cnc2C(C)OC)c2c3cc(ccc31)-c1csc(n1)CC(NC(=O)C1CC1C)C(=O)N1CCCC(N1)C(=O)OCC(C)(C)C2, the IC50 runs as follows: under setting [1], 591 nM; under setting [2], 406 nM; under setting [3], under 31.6 nM; under setting [4], under 31.6 nM; under setting [5], under 31.6 nM; under setting [6], under 31.6 nM. Further, the viability, T/C by setting is: under setting [7], 75.2%; under setting [8], 76.5%; under setting [9], 72.7%; under setting [10], 30.7%; under setting [11], 0.47%; under setting [12], 0.37%. For the same compound, the viability, T/C was 53.5% under setting [13]; 53.9% under setting [14]; 58.1% under setting [15]; 31.4% under setting [16]; 0.26% under setting [17]; 0.35% under setting [18]. The viability, T/C reads like this: under setting [19], 30.6%; under setting [20], 34.3%; under setting [21], 36.8%; under setting [22], 17.1%; under setting [23], 0.17%; under setting [24], 0.29%. In addition, the viability, T/C by setting is: under setting [25], 21.9%; under setting [26], 19%; under setting [27], 21.2%; under setting [28], 15.5%; under setting [29], 0.09%; under setting [30], 0.27%. Moreover, the viability, T/C under setting [31] was 15.7%; the viability, T/C under setting [32] was 15%; the viability, T/C under setting [33] was 16.8%; the viability, T/C under setting [34] was 14.7%; the viability, T/C under setting [35] is 0.52%; the viability, T/C under setting [36] was 0.34%. For the same compound, the viability, T/C runs as follows: under setting [37], 15%; under setting [38], 14.2%; under setting [39], 14.8%; under setting [40], 13.4%; under setting [41], 0.25%; under setting [42], 0.53%.
